Values of other authors as cited in patent US20020192774A1, “Method for processing lignocellulosic material” (priority 2000, published 2002).

Test system: yeast
Conditions: pH values as low as 4.5; Taherzadeh et al., 1997

## CC(=O)O [Acetic acid]
  acetate concentration at which yeast is able to grow: 10 g acetate per litre
